“Also recorded” adds a separate entry of the source.
Experiments:
HeLa cells [1] = assay: Cell migration assay of HeLa cells on lipid multilayer films made by evaporative edge lithography; type: cell-based; conditions: for collective cell migration compared to control group: lipid encapsulated film; for collective cell migration compared to control group / migration rate of HeLa cells versus lipid thickness: 24 hours; for HeLa cell migration (qualitative effect): drug delivered from encapsulated lipid films; for migration rate of HeLa cells versus lipid thickness: lipid only
Method: Polydimethylsiloxane (PDMS) was cured from the SYLGARD® 184 silicone elastorner kit in a 60° C. oven overnight. PDMS strips of 15 mm long by 1 mm wide were placed between 500-800 μm apart on prepared glass coverslips before addition of lipid mixtures. 1,2-dioleoyl-3-trimethylammonium-propane (chloride salt) (DOTAP) and 1,2-dioleoyl-sn-glycerol-3-phosphoethanolamine-N-(lissamine rhodamine b sulfonyl) (ammonium salt) (DOPE-rhodamine) were purchased from Avanti Polar Lipids. To create lipid only solutions, DOTAP was mixed with 1 molar percent (mol %) DOPE-rhodamine in chloroform and dried overnight in a vacuum pump desiccators at 16 LM 15 Torr 7.4 PSIG to remove solvent. Ethanol (100%) was added to suspend dried lipid powder and 1 μl was deposited in each PDMS channel and the array was dried overnight in a vacuum to remove residual ethanol. A similar procedure was used for docetaxel encapsulated lipid solutions and the drug was dissolved in ethanol prior to adding to the dried lipid powder.
The prepared assays on glass coverslips were placed individually wells of a 6-well plate for cell culture. For experiments, cells were seeded onto the prepared patterned glass coverslips by gently pipetting the cell suspension (2.5×10^5 cells/ml, 1 ml per coverslip) directly over each PDMS channel to allow cells to settle in them. The same method was used to seed other parts of the slide for use as control areas. Cells were allowed to settle for 1-2 hours before the PDMS barriers were removed to promote cell migration. After barrier removal, the coverslips were washed once with HBSS and replaced with fresh growth media. The cells were incubated over the patterned areas for up to 24 hours. Width of each cell strip was measure by hand with Nikon Elements 4.0 analysis software and the average migration rate for each strip was determined with the following equation: Migration Rate (μm/hr)=(WidthT=24 hrs−WidthT=0 hrs/24hrs.
Width is the average width in micrometers (μm) of the cell monolayer measured either at the beginning of the experiment (T=0 hrs) or at the end (T=24 hours).
The images for cell migration were captured on a Nikon Ti Eclipse inverted microscope with 4× or 10× objectives. Images for cell migration were taken after barrier removal and once again 24 hours after incubation period in phase contrast. Fluorescent filters used were B-2E/C and G-2E/C for red and green emitting dyes.
(§1) A student t-test was performed to determine statistical significance between means of each sample (p-value <0.05). Error bars in figures are standard error of the mean for n samples. Characterizing the edge lipid films produced a total of n=20 samples and middle lipid film measurements produced n=10 samples. Cell density experiments were performed in triplicates (n=3). All samples for cell migration were taken in triplicate and replicated three times (n=9).

[2] = cited from earlier work
[3] = cited from earlier work; remark: listed apart in the source
HeLa cells [4] = assay: Cell adhesion experiments on lipid films of different multilayer thickness; type: cell-based
Method: Lipids were dissolved in ethanol and added to each channel in increasing amounts from 0.2 ng to 20 μg. Tests for cell attachment were performed by seeding HeLa cells into assay channel with varying amounts of lipid films. Cells were allowed to attach for two hours before washing the channels repeatedly 5 times. Prior to counting, cells were incubated with live-cell fluorescent dye (SYTO9, Invitrogen). The number of cells per square micron area (μm^2) that remained attached was counted manually. Experiments for cell adhesion where performed in three replicates. Values for cell density of each treatment were determined by averaging the number of cells in 5 random 100 μm^2 areas in a single image captured at a 4× magnification.
as §1

Question: With `CC(=O)O[C@@]12CO[C@@H]1C[C@H](O)[C@@]1(C)C(=O)[C@H](O)C3=C(C)[C@@H](OC(=O)[C@H](O)[C@@H](NC(=O)OC(C)(C)C)c4ccccc4)C[C@@](O)([C@@H](OC(=O)c4ccccc4)[C@H]21)C3(C)C` [docetaxel] as the compound, how does the “migration rate of the cells, dose dependence” value (HeLa cells [1]; delivered by encapsulated lipid films, over 24 hours) read?
Answer: Its value is “reduced the migration rate of the cells dose-dependently”.

Question: And the “collective cell migration compared to control group” value (HeLa cells [1]; docetaxel to lipid ratio (by mass) 1:2)?
Answer: The value was “significantly (p<0.05) reduce collective cell migration”.

Question: And the “collective cell migration compared to control group” value (HeLa cells [1]; docetaxel to lipid ratio (by mass) 1:4)?
Answer: The value was “significantly (p<0.05) reduce collective cell migration”.

Question: What about the “collective cell migration compared to control group” value (HeLa cells [1]; docetaxel to lipid ratio (by mass) 1:10) of the same compound?
Answer: The value was “significantly (p<0.05) reduce collective cell migration”.

Question: And the “HeLa cell migration (qualitative effect)” value (HeLa cells [1])?
Answer: The value was “significantly inhibit cellular migration; also recorded: inhibited”.

Question: And the solubility in water [2]?
Answer: Its solubility in water is “less than 0.025 mg/L”.

Question: Which results are given for `C[C@H]1CCC/C=C/[C@@H]2C[C@H](O)C[C@H]2[C@H](O)/C=C/C(=O)O1` [brefeldin A]?
Answer: HeLa cell migration (qualitative effect) (HeLa cells [1]): inhibited; log P [3]: 1.61

Question: With `CCCCCCCC/C=C\CCCCCCCC(=O)OCC(C[N+](C)(C)C)OC(=O)CCCCCCC/C=C\CCCCCCCC.[Cl-]` (stereo not shown) [DOTAP, 1,2-dioleoyl-3-trimethylammonium-propane (chloride salt)] as the compound, how does the “migration rate of HeLa cells versus lipid thickness” value (HeLa cells [1]; channels from lipid solutions of 20 μg/ml or lower) read?
Answer: Its value is “not significantly (p<0.05) affected”.

Question: What about the “migration rate of HeLa cells versus lipid thickness” value (HeLa cells [1]; lipid solutions above 20 μg/ml) of the same compound?
Answer: Its value is “significantly hindered”.

Question: And the “HeLa cell adhesion to lipid films compared to untreated glass” value (HeLa cells [4]; concentrations higher than 20 μg/ml, 2 hours of incubation)?
Answer: The value was “adhere significantly less (p<0.05)”.

Question: What about the “HeLa cell adhesion to lipid films” value (HeLa cells [4]; films created from 20 ng (initial solution 20 μg/ml) or lower, 2 hours of incubation) of the same compound?
Answer: The value was “adherent”.

Question: What about the “HeLa cell morphology and viability on lipid multilayers” value (HeLa cells [4]; lipid multilayers created from 200 ng of lipids or more, compared to thinner multilayers) of the same compound?
Answer: The value was “exhibited abnormal morphology and appeared dead”.

From US9995732B2, “Evaporative edge lithography of a liposomal drug microarray for cell migration assays” (FLORIDA STATE UNIVERSITY RESEARCH FOUNDATION, priority 2012, dated 2018)
